Results as given in US20170100493A1, “RECEPTOR IMAGING SYSTEMS AND RELATED METHODS” (The General Hospital Corporation, priority 2015, published 2017).
Read-outs that look alike come from different tables or passages of the source.

Legend:
[1] = target: T1, D2/D3 receptors (Macaca mulatta, UniProt F7CYH8); conditions: for Peak CBV: putamen ROI, animal M1
Experimental: (§1) Two animals (male rhesus macaques: M1 (8 years) and M2 (6 years)) underwent PET/MR imaging. For each study, the animal was anesthetized, initially with 10 mg/kg ketamine and 0.5 mg/kg xylazene, and maintained with isoflurane (1%, mixed with oxygen) after intubation.
(§2) [^11C]Raclopride was injected using a bolus+infusion protocol. […] Boluses were administered by hand over a duration of 30 seconds, after which infusion at a rate of 0.01 ml/s was started with an automatic pump (Medrad Spectra Solaris). Specific activities at time of injection were 3.7±2.8 mCi/nmol. […] Experiments and repeated administration of pharmacological challenges in all NHPs were separated by at least 2 weeks, so that results were not influenced from prior history. […] Additionally, the D2 antagonist prochlorperazine was injected at doses 0.1 and 0.2 mg/kg in animal M2 to serve as a direct comparison to the agonists, and to investigate whether the temporal relationship between occupancy and function that was reported for the short-acting antagonist raclopride (10) was maintained for an antagonist with much longer duration of action.
(§3) Simultaneous PET and MR data were acquired on a prototype scanner that includes a BrainPET insert and a Tim Trio 3T MR scanner (Siemens AG, Healthcare Sector, Erlangen Germany). A custom-built tight-fitting PET compatible 8-channel NHP receive array (34) together with a vendor-supplied local circularly polarized transmit coil was used for MR imaging.
The phased array enabled 2-fold acceleration with GRAPPA (35) in the anterior-posterior direction. […] To improve fMRI detection power, ferumoxytol (Feraheme, AMAG Pharmaceuticals, Cambridge Mass.) was injected at 10 mg/kg prior to fMRI (36).
(§4) PET and MR data were registered to the Saleem-Logothetis stereotaxic space (38) with an affine transformation (12 degrees of freedom) using a multi-subject MRI template (39), in which standard regions of interest (ROI) were defined based on anatomy. Alignment of the EPI data used an affine transformation plus local distortion fields. After motion-correcting using AFNI software (40), and after spatially smoothing fMRI data with a 2.5 mm Gaussian kernel, statistical analysis was carried out using the general linear model (GLM). The temporal response to the drug injection was modeled with a gamma-variate function, in which the time-to-peak was adjusted to minimize the χ^2/DOF of the GLM fit to the data. […] Additionally, regressors that correspond to translations in three dimensions and were derived from motion correction were used in the GLM analysis. The resulting signal changes were then converted to percentage changes in CBV by standard methods (41).

[2] = target: T1, D2/D3 receptors; conditions: for DBPND^peak / Peak Occ. θ^peak / BP^(0): putamen ROI, animal M1; for BP^(0): baseline [11C]raclopride binding potential
Experimental: as §1, §2, §3
PET emission data were acquired in list-mode format for 100 min starting with radiotracer injection. Images were reconstructed with a 3D Poisson ordered-subset expectation maximization algorithm using prompt and variance-reduced random coincidence events. Normalization, scatter and attenuation sinograms (including attenuation of the radiofrequency coil) were included in the reconstruction (37). […] Framing intervals were 10×30 sec, followed by 1 min frames.
as §4
PET kinetic modeling employed a general linear model formulation of the simplified reference tissue model (SRTM) (14), with cerebellum as the reference ROI, and the rate constant (k2) for cerebellum derived from the high-binding region putamen using a 2-parameter SRTM model (42).

[3] = target: D2; conditions: cited from earlier work
[4] = target: T1, D2/D3 receptors; conditions: mean±std over doses; model fit to experimental data
Experimental: The process of receptor desensitization and internalization can be considered in a dynamic occupancy model. In an example of a dynamic occupancy model, the following are assumed: • i. The externalization constant kext is very long, and is thus negligible for timescales <2 h. • ii. Once internalized, receptors can be bound with an affinity α by the PET radiotracer. […] The rate to convert desensitized to internalized receptors is negligible with respect to the relevant experimental timescales.
The concentrations of the free ligand and free DA can both be normalized to the baseline DA occupancy at time zero, such that f describes the fraction of free concentration (relative to baseline DA). The parameter θint describes the fraction of internalized receptors and kDI denotes the desensitization and internalization rate constant. The above equations, plus the measurement models for PET and fMRI are a full description of the RDI model employed in this study for simulation and parameter estimation.
The RDI model was used to generate a family of CBV curves for RDI rates in the range of 1 min to 30 min. An estimate of the RDI constant for each dataset was then achieved by minimizing the residual norm between the model and data after drug injection.

[5] = system: D2/D3; conditions: reported (ref 19); cited from earlier work
[6] = target: D3; conditions: cited from earlier work

T1 sequence (F7CYH8 1-443): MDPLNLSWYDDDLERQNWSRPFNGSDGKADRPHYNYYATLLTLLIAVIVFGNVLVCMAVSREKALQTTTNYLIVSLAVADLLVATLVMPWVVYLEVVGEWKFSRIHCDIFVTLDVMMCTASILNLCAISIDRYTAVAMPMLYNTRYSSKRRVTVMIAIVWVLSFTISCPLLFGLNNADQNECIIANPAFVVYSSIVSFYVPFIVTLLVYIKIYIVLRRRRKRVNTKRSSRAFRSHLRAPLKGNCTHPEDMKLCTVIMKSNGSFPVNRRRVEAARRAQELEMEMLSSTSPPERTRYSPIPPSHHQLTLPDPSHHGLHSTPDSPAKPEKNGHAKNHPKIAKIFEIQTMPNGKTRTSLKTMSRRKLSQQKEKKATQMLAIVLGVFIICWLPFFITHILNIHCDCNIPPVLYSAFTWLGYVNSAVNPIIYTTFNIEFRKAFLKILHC

CN1CCN(CCCN2c3ccccc3Sc3ccc(Cl)cc32)CC1 [prochlorperazine]
CBV and occupancy timecourses compared ([1]; animal M2, FIG. 4 graph (c)): CBV and occupancy timecourses were matched | CBV response peak magnitude ([1]; at 88% occupancy, animal M2): 14.4% | occupancy at CBV peak magnitude ([2]; animal M2): 88%

CCCN(CCC)CCc1cccc2c1CC(=O)N2 [ropinirole]
Kd [3]: 970 nM | 1/kDI, in vivo desensitization and internalization time constant [4]: 8.5 ± 2.1 min | CBV timecourse peak time after the injection ([1]; 0.1 mg/kg, animal M2): 4.0 min | duration of CBV response in caudate ([1]; 0.1 mg/kg, animal M2): 28.5 min | CBV timecourse peak time after the injection ([1]; 0.3 mg/kg, animal M2): 3.4 min | duration of CBV response in caudate ([1]; 0.3 mg/kg, animal M2): 25.0 min | CBV^peak signal ([1]; animal M2, FIG. 4 comparison of agonists): −8.5% | Peak CBV ([1]; 0.1 mg/kg): −6.6% | Peak CBV ([1]; 0.3 mg/kg): −9.7% | potency compared to quinpirole [5]: about seven times less potent | Kd [6]: 61 nM | time at which PET occupancy peaked ([2]; animal M2, FIG. 4): 17.8 min | DBPND^peak ([2]; 0.1 mg/kg): 4.7 | Peak Occ. θ^peak ([2]; 0.1 mg/kg): 7% | DBPND^peak ([2]; 0.3 mg/kg): 2.9 | Peak Occ. θ^peak ([2]; 0.3 mg/kg): 49% | BP^(0) ([2]; 0.1 mg/kg session): 5.1 | BP^(0) ([2]; 0.3 mg/kg session): 5.7
